Measured values from patent publication US11512079B2, “Heterocycle substituted pyridine derivative antifungal agents” (Amplyx Pharmaceuticals, Inc., priority 2017, dated 2022).
≈ marks a conversion by molar mass, not a printed value.

How the values were obtained:
Type in all cases: cell-based
Candida albicans 90028 = assay: In vitro antifungal assay (Example IX), microdilution broth, MIC; settings: minimum inhibitory concentration (≥50% inhibition), 35° C., 40-48 h, RPMI1640
Experimental: Measurement of antifungal activity: Antifungal activity of the compounds was evaluated in a microdilution broth assay as per Clinical and Laboratory Standard Institute methodology for yeast (for Candida and Cryptococcus) (1) and molds (for Aspergillus and Rhizomucor) (2). Candida albicans 90028, Aspergillus fumigatus MYA3626, Rhizomucor pusillus 46342 and Cryptococcus neoformans H99 strains were obtained from American Type Culture Collection (ATCC).
Preparation of Fungal Suspension. C. albicans 90028 and C. neoformans H99 strains were streaked from frozen stocks at −80° C. onto Sabouraud Dextrose Agar (SDA) plates. These were allowed to grow for 24 h (C. albicans) and 48 h (C. neoformans) at 35° C. before using them in the assay. 5-6 individual colonies were picked and diluted into sterile water to obtain a fungal suspension. The cell density of the suspension was determined and the culture diluted with RPMI1640 medium to obtain a fungal suspension of 2.5×10^3 cells/mL. The suspension was used in the MIC measurement as described below.
Preparation of Compound Stocks and Intermediate Dilutions: The compounds were weighed and DMSO was added to prepare a 10 mg/mL stock. The solutions were mixed by vortexing and sonication at 37° C. for 5-10 mins. The resulting solutions were sterile filtered using a PTFE filter, and aliquoted (12 μL or as needed) and stored at −20° C. Intermediate compound dilutions were prepared in sterile polypropylene tubes in 100% DMSO. The compound stock solution was first diluted in DMSO to obtain a concentration of […] to 0.19 μg/mL.
MIC/MEC Measurement: 99 μL 1 of the fungal suspension in RPMI1640 prepared as above was added to each well of a 96-well round bottom assay plate. 1 μL of the intermediate compound dilutions (200-0.19 μg/mL) were added to wells of the plate. This led to a 100-fold dilution of the intermediate dilutions resulting in a final compound concentration of 2-0.0019 μg/mL in the plate. 1 μL of DMSO was added to “No drug” control wells. The solutions were mixed by shaking on a plate shaker for 10 mins and plates incubated at 35° C. for 40-48 h (C. albicans, A. fumigatus, R. pusillus) and 72 h (Cryptococcus). […] This was validated by thorough mixing and reading at 600 nm on a microplate reader. The minimum concentration that led to shortening of hyphae as compared to hyphal growth in DMSO control wells was determined as the minimum effective concentration (MEC) for A. fumigatus and R. pusillus (as read for echinocandins). The use of the MIC and MEC endpoints against yeasts and molds, respectively has been described by Pfaller M A, Duncanson F, Messer S A, Moet G J, Jones R N, Castanheira M. Antimicrob Agents Chemother. 2011. 55(11):5155-8. In vitro activity of a novel broad-spectrum antifungal, E1210, tested against Aspergillus spp. determined by CLSI and EUCAST broth microdilution methods. Results are shown in Table 2, and the letters indicate the following ranges in μg/mL: […]

[1] = tested on: Aspergillus fumigatus MYA3626; assay: In vitro antifungal assay (Example IX), microdilution broth, MEC; settings: minimum effective concentration (shortening of hyphae), 35° C., 40-48 h, RPMI1640
Experimental: (§1) Measurement of antifungal activity: […] Candida albicans 90028, Aspergillus fumigatus MYA3626, Rhizomucor pusillus 46342 and Cryptococcus neoformans […] strains were obtained from American Type Culture Collection (ATCC). […] (A. fumigatus) and 35° C. (R. pusillus). Water containing 1% Tween was directly added to the agar plate and gently agitated to wet and remove the Aspergillus conidia. For R. pusillus, water was added to the surface and gently massaged to wet and remove the spores. For both species, the conidia or spores and mycelial fragments were collected, followed by removal of mycelium, conidiophores and large clumps of conidia/spores. The resulting spore suspension was counted and diluted into RPMI1640 medium to adjust to a final suspension of 1-2×10^4 spores/mL. The suspension was used in the MEC measurement as described below. […] The compounds were weighed and DMSO was added to prepare a 10 mg/mL stock. The solutions were mixed by vortexing and sonication at 37° C. for 5-10 mins. The resulting solutions were sterile filtered using a PTFE filter, and aliquoted (12 μL or as needed) and stored at -20° C. Intermediate compound dilutions were prepared in sterile polypropylene tubes in 100% DMSO. […] This was validated by thorough mixing and reading at 600 nm on a microplate reader. The minimum concentration that led to shortening of hyphae as compared to hyphal growth in DMSO control wells was determined as the minimum effective concentration (MEC) for A. fumigatus and R. pusillus (as read for echinocandins). The use of the MIC and MEC endpoints against yeasts and molds, respectively has been described by Pfaller M A, Duncanson F, Messer S A, Moet G J, Jones […]. Antimicrob Agents Chemother. 2011. 55(11):5155-8. In vitro activity of a novel broad-spectrum antifungal, […], tested against Aspergillus spp. determined by CLSI and EUCAST broth microdilution methods. Results are shown in Table 2, and the letters indicate the following ranges in μg/mL: […]

[2] = tested on: Rhizomucor pusillus 46342; assay: as above; settings: minimum effective concentration (shortening of hyphae), 35° C., 40-48 h, RPMI1640
Experimental: as §1

MIC (Candida albicans 90028) | SMILES | minimal effective concentration [1] | minimal effective concentration [2]
0.1 to 1 µg/mL (≈ 0.281 to 2.81 µM) | N#Cc1cnn(Cc2ccc(Cc3cc(-c4cccnc4N)on3)cc2)c1 [compound 3, 1-(4-((5-(2-aminopyridin-3-yl)isoxazol-3-yl)methyl)benzyl)-1H-pyrazole-4-carbonitrile] | 0.1 to 1 µg/mL | > 1 µg/mL
> 1 µg/mL | Nc1ncccc1-c1cc(Cc2ccc(CNc3ncns3)cc2)no1 [compound 6, N-(4-((5-(2-aminopyridin-3-yl)isoxazol-3-yl)methyl)benzyl)-1,2,4-thiadiazol-5-amine] | > 1 µg/mL | > 1 µg/mL
0.1 to 1 µg/mL (≈ 0.252 to 2.52 µM) | Nc1ncccc1-c1cc(Cc2ccc(CNc3cnc4[nH]ccc4c3)cc2)no1 [compound 7, N-(4-((5-(2-aminopyridin-3-yl)isoxazol-3-yl)methyl)benzyl)-1H-pyrrolo[2,3-b]pyridin-5-amine] | 0.1 to 1 µg/mL | > 1 µg/mL
0.1 to 1 µg/mL (≈ 0.261 to 2.61 µM) | Nc1ncccc1-c1cc(Cc2ccc(Cc3ccc4ncnn4c3)cc2)no1 [compound 13, 3-(3-(4-([1,2,4]triazolo[1,5-a]pyridin-6-ylmethyl)benzyl)isoxazol-5-yl)pyridin-2-amine] | 0.1 to 1 µg/mL | > 1 µg/mL
0.1 to 1 µg/mL (≈ 0.258 to 2.58 µM) | CC(C)Cn1cc(Cc2ccc(Cc3cc(-c4cccnc4N)on3)cc2)cn1 [compound 16, 3-(3-(4-((1-isobutyl-1H-pyrazol-4-yl)methyl)benzyl)isoxazol-5-yl)pyridin-2-amine] | 0.1 to 1 µg/mL | 0.1 to 1 µg/mL
0.1 to 1 µg/mL (≈ 0.291 to 2.91 µM) | Nc1ncccc1-c1cc(Cc2ccc(Cc3cncnc3)cc2)no1 [compound 21, 3-(3-(4-(pyrimidin-5-ylmethyl)benzyl)isoxazol-5-yl)pyridin-2-amine] | 0.1 to 1 µg/mL | > 1 µg/mL
> 1 µg/mL | Nc1ncccc1-c1cc(Cc2ccc(COc3cccc4ccccc34)cc2)no1 [compound 24, 3-(3-(4-((naphthalen-1-yloxy)methyl)benzyl)isoxazol-5-yl)pyridin-2-amine] | > 1 µg/mL | > 1 µg/mL
> 1 µg/mL | Nc1ncccc1-c1cc(Cc2ccc(COc3ccc(Cl)c4ccccc34)cc2)no1 [compound 25, 3-(3-(4-(((4-chloronaphthalen-1-yl)oxy)methyl)benzyl)isoxazol-5-yl)pyridin-2-amine] | > 1 µg/mL | > 1 µg/mL
0.1 to 1 µg/mL (≈ 0.268 to 2.68 µM) | Cc1cnc(COc2ccc(Cc3cc(-c4cccnc4N)on3)cc2)nc1 [compound 29, 3-(3-(4-((5-methylpyrimidin-2-yl)methoxy)benzyl)isoxazol-5-yl)pyridin-2-amine] | 0.1 to 1 µg/mL | > 1 µg/mL
> 1 µg/mL | Cc1nccc(NCc2ccc(Cc3cc(-c4cccnc4N)on3)cc2)n1 [compound 33, N-(4-((5-(2-aminopyridin-3-yl)isoxazol-3-yl)methyl)benzyl)-2-methylpyrimidin-4-amine] | > 1 µg/mL | > 1 µg/mL
0.1 to 1 µg/mL (≈ 0.296 to 2.96 µM) | Nc1ncccc1-c1cc(Cc2ccc(OCC3COC3)nc2)no1 [compound 44, 3-(3-((6-(oxetan-3-ylmethoxy)pyridin-3-yl)methyl)isoxazol-5-yl)pyridin-2-amine] | > 1 µg/mL | > 1 µg/mL
0.1 to 1 µg/mL (≈ 0.276 to 2.76 µM) | Cn1ccc(COc2ccc(Cc3cc(-c4cccnc4N)on3)cn2)n1 [compound 45, 3-(3-((6-((1-methyl-1H-pyrazol-3-yl)methoxy)pyridin-3-yl)methyl)isoxazol-5-yl)pyridin-2-amine] | 0.1 to 1 µg/mL | > 1 µg/mL
> 1 µg/mL | Cn1cc(COc2ccc(Cc3cc(-c4cccnc4N)on3)cn2)cn1 [compound 49, 3-(3-((6-((1-methyl-1H-pyrazol-4-yl)methoxy)pyridin-3-yl)methyl)isoxazol-5-yl)pyridin-2-amine] | > 1 µg/mL | > 1 µg/mL
0.1 to 1 µg/mL (≈ 0.276 to 2.76 µM) | Cc1occc1COc1ccc(Cc2cc(-c3cccnc3N)on2)cn1 [compound 52, 3-(3-((6-((2-methylfuran-3-yl)methoxy)pyridin-3-yl)methyl)isoxazol-5-yl)pyridin-2-amine] | 0.1 to 1 µg/mL | > 1 µg/mL
0.1 to 1 µg/mL (≈ 0.256 to 2.56 µM) | CC(Oc1ccc(Cc2cc(-c3cccnc3N)on2)cn1)c1ccccc1F (stereo not drawn) [compound 56, 3-(3-((6-(1-(2-fluorophenyl)ethoxy)pyridin-3-yl)methyl)isoxazol-5-yl)pyridin-2-amine] | 0.1 to 1 µg/mL | > 1 µg/mL
0.1 to 1 µg/mL (≈ 0.277 to 2.77 µM) | Nc1ncccc1-c1cc(Cc2ccc(Nc3cccc(F)c3)nc2)no1 [compound 59, 5-((5-(2-aminopyridin-3-yl)isoxazol-3-yl)methyl)-N-(3-fluorophenyl)pyridin-2-amine] | 0.1 to 1 µg/mL | > 1 µg/mL
0.1 to 1 µg/mL (≈ 0.29 to 2.9 µM) | c1ccc(Sc2ccc(Cn3cc(-c4cccnc4)cn3)cn2)cc1 [compound 66, 2-(phenylthio)-5-((4-(pyridin-3-yl)-1H-pyrazol-1-yl)methyl)pyridine] | 0.1 to 1 µg/mL | > 1 µg/mL
0.1 to 1 µg/mL (≈ 0.278 to 2.78 µM) | Nc1ncccc1-c1cnn(Cc2ccc(Sc3ccccc3)nc2)c1 [compound 67, 3-(1-((6-(phenylthio)pyridin-3-yl)methyl)-1H-pyrazol-4-yl)pyridin-2-amine] | 0.1 to 1 µg/mL | > 1 µg/mL
0.1 to 1 µg/mL (≈ 0.28 to 2.8 µM) | Nc1ccc(-c2cnn(Cc3ccc(OCc4ccccc4)nc3)c2)cn1 [compound 68, 5-(1-((6-(benzyloxy)pyridin-3-yl)methyl)-1H-pyrazol-4-yl)pyridin-2-amine] | 0.1 to 1 µg/mL | > 1 µg/mL
> 1 µg/mL | CC1=C(Oc2ccc(Cc3cc(-c4cccnc4N)on3)cn2)C(=O)C(C)O1 (stereo not drawn) [compound 71, 4-((5-((5-(2-aminopyridin-3-yl)isoxazol-3-yl)methyl)pyridin-2-yl)oxy)-2,5-dimethylfuran-3(2H)-one] | > 1 µg/mL | > 1 µg/mL
> 1 µg/mL | N#Cc1ccc(COc2ccc(Cc3cc(-c4cccnc4N)on3)cn2)cc1 [compound 76, 4-(((5-((5-(2-aminopyridin-3-yl)isoxazol-3-yl)methyl)pyridin-2-yl)oxy)methyl)benzonitrile] | 0.1 to 1 µg/mL | 0.1 to 1 µg/mL
